pIC50: −log10 of the molar value.
Experiments:
[1] = system: adrenergic, serotonergic receptors; assay: Receptor bonding (adrenergic, serotonergic); type: binding; conditions: for Receptor bonding: result in words
[2] = system: isolated one-day-old chicks; assay: chick call test (distress call activation in isolated chicks); type: in vivo; conditions: for ED150: Gallus gallus, ip
From the text: The call frequency of isolated one-day-old chicks which decreases during the course of the test is taken as an experimental behavioural model for manifestations of resignation in depression. […] Neurol. Psychiat.

cholinergic function = assay: Effect on cholinergic function; conditions: result in words
Tetrabenazine = Tetrabenazine antagonism (ptosis alleviation, mouse); type: in vivo; conditions: Table 1
LD50, mouse, oral route = conditions: in vivo, by oral route

With “1-acetamido-2-pyrrolidinone [Compound B, reference compound]” the Receptor bonding [1] was “none”, the “Chick call test ED150” value ([2]; i.p., Table 1) was > 160 mg/kg and the “Effect on cholinergic function” value (cholinergic function) was “none”. For the same compound, the Tetrabenazine antagonism (ptosis alleviation, mouse) (Tetrabenazine) was > 640 mg/kg.
For NCC1CC(=O)N(Cc2ccccc2)C1 (centres unmarked) [Compound A, 1-benzyl-4-aminomethyl-pyrrolidin-2-one], the pIC50 [1] was < 5.00, the Receptor bonding [1] was “none” and the LD50 (LD50, mouse, oral route) was > 2000 mg/kg. For the same compound, the ED150 ([2]; Table 1) was 40 mg/kg, the “Effect on cholinergic function” value (cholinergic function) was “Demand” and the Tetrabenazine antagonism (ptosis alleviation, mouse) (Tetrabenazine) was 100 mg/kg.
CCN(CC)CC1CCC(=O)N1Cc1ccccc1 (centres unmarked) [J, 1-Benzyl-5-diethylaminomethyl-pyrrolidin-2-one] gave an ED150 ([2]; Table II) of 0.01 mg/kg.
In the case of CN(C)CC1CCC(=O)N1Cc1ccc(Cl)cc1 (centres unmarked) [L, 1-(p-chlorobenzyl)-5-dimethylaminomethyl-pyrrolidin-2-one], the ED150 ([2]; Table II) was 0.1 mg/kg.
For O=C1CC(CN2CCOCC2)CN1Cc1ccc(F)cc1 (centres unmarked) [1-(4-Fluorobenzyl)-4-(morpholinomethyl)-pyrrolidin-2-one], the ED150 ([2]; Table II) was 80 mg/kg.
Compound COc1ccc(CN2CC(CN)CC2=O)cc1 (centres unmarked) [C, 1-(4-Methoxybenzyl)-4-aminomethyl-pyrrolidin-2-one] has an ED150 ([2]; Table II) of 25 mg/kg.
Work on NCC1CC(=O)N(Cc2ccc(F)cc2)C1 (centres unmarked) [D, 1-(4-Fluorobenzyl)-4-aminomethyl-pyrrolidin-2-one] yielded an ED150 ([2]; Table II) of 20 mg/kg.
CN1CCN(CC2CC(=O)N(Cc3ccccc3)C2)CC1 (centres unmarked) [H, 1-Benzyl-4-(N-methylpiperazinylmethyl)-pyrrolidin-2-one] gave an ED150 ([2]; Table II) of 18 mg/kg.
In the case of O=C1CCC(CN2CCCC2)N1Cc1ccccc1 (centres unmarked) [K, 1-Benzyl-5-pyrrolidinomethyl-pyrrolidin-2-one], the ED150 ([2]; Table II) was 0.1 mg/kg.

Source: patent US4954516A, “Use of 1-benzyl-aminoalkyl-pyrrolidinones as antidepressants” (Boehringer Ingelheim KG, priority 1986, dated 1990)
